This passage reports IC50 results from US20250084078A1, “FUSED RING-SUBSTITUTED SIX-MEMBERED HETEROCYCLIC COMPOUND, AND PREPARATION METHOD THEREFOR AND USE THEREOF” (GENFLEFT THERAPEUTICS (SHANGHAI) INC., priority 2022, published 2025).

Each structure is given as a SMILES string.

Chain of HPK1 (Q92918 whole entry): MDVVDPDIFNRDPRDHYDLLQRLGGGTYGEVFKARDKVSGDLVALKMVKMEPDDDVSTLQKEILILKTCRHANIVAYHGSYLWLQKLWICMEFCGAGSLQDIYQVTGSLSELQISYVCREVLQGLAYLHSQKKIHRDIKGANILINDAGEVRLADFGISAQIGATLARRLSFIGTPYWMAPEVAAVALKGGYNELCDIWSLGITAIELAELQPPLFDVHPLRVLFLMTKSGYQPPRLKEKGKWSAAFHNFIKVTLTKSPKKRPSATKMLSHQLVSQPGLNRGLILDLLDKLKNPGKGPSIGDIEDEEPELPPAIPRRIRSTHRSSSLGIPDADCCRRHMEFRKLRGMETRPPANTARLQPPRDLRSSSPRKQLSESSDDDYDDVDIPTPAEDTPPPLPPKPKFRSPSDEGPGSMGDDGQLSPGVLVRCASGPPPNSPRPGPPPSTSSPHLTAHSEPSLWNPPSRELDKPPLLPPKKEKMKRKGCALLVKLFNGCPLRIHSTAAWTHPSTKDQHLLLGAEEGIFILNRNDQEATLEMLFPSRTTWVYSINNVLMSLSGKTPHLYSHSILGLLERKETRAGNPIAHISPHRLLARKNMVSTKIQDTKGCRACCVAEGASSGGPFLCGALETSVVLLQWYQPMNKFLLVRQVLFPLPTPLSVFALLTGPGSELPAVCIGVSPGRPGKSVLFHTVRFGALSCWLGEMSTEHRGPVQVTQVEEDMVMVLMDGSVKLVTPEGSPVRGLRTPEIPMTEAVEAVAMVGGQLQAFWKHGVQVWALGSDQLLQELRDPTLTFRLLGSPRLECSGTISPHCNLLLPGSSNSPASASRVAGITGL

This experiment concerns the target HPK1 (Homo sapiens, UniProt Q92918). Nature of the experiment: SLP76 phosphorylation assay (intracellular HPK1 inhibitory activity, p-SLP76 S376 ELISA in Jurkat cells). The note with it: p-SLP76 IC50, Jurkat, Clone E6-1 cells; 1 h compound pre-incubation; anti-CD3 beads stimulation 20 min; Phospho-SLP-76 (Ser376) ELISA.
Procedure: SLP76 Phosphorylation Assay
Intracellular HPK1 inhibitory activity was tested by the detection of SLP76 phosphorylation at S376.
Preparation of 1000× drug stock plate: a 1000× compound stock plate was prepared. […] The compound stock plate was sealed with a sealing film and stored in a −20° C. refrigerator for later use.
Preparation of Beads wash buffer: 0.1 mL FBS and 0.4 mL 0.5 M EDTA (with a final concentration of 2 mM) were added to 100 mL PBS and stored in a 4° C. refrigerator for later use.
100× Protease Inhibitor Cocktail in 1/20 total volume was added and stored on wet ice for later use. The buffer was ready to use.
Cell inoculation and dosing: the 1000× drug stock plate was taken and melted at room temperature in the dark. […] Jurkat cells in the logarithmic growth phase were selected and collected. […] The cells were inoculated into a 96-well plate (the volume was 90 μL per well), and a blank control well (without cells inoculation, and in which 110 μL of medium was added) was set. 10 μL of a drug-containing culture medium (10×) was transferred from the 10× drug intermediate plate into the 96-well cell plate (with a final concentration of 0.1% DMSO), and set a DMSO control group (in which 0.1% DMSO was added to the treated cells), a stimulated control group (in which 10 μL of culture medium was added to treat cells) and an unstimulated group (in which 10 μL of culture medium was added to treat cells). The wells were duplicated, gently patted, mixed, and then placed into a 5% CO2 incubator at 37° C. for 1 h.
Anti-CD3 beads stimulation: Dynabeads anti-human CD3 was taken, shaken, and mixed for 60 s. The required volume of beads was pipetted, and an equal volume or at least 1 mL of washing solution was added to wash once. Fresh complete medium was then added to resuspend and adjust the density of the beads to 4×10^7/mL, and the beads were placed on ice for later use. At the end of drug pre-incubation, the cell culture plate was taken out. 10 μL Dynabeads anti-human CD3 was added to each well to treat the cells, and 10 μL the culture medium was added to the unstimulated group. The cell culture plate was shaken to mix well at 2500 rpm for 10 s, and then placed into a 5% CO2 incubator at 37° C. and continued to culture for 20 min.
Detection of p-SLP76 protein level: PathScan Phospho-SLP-76 (Ser376) Sandwich ELISA Kit was applied to detect p-SLP76 protein level. At the end of the Anti-CD3 beads stimulation, the cell culture plate was removed from the incubator. […] After lysis, the cell culture plate was centrifuged at 4° C., 400×g for 5 min. 25 μL of sample and 75 μL of sample diluent were added to each well, and the plate was placed in a 5% CO2 incubator at 37° C. for 2 h. The subsequent detection steps were carried out following the kit instructions, and the absorbance (OD value) of each well was read at 450 nm by a microplate reader.
For orientation: IC50 means the concentration that inhibits the measured activity by half. `O=C(N1CCc2cc(-c3cnc4[nH]cc(Cl)c4n3)cc([C@@H]3COCCN3)c2C1)N1C[C@H]2CC[C@@H]1CO2` (single isomer, unassigned) [Compound Z591] yielded an IC50 of 275 nM.

Compound `Cc1c[nH]c2ncc(-c3cc4c(c([C@@H]5COCCN5)c3)CN(C(=O)N3CCOC[C@H]3C)CC4)cc12` [Compound Z480, (6-(3-methyl-1H-pyrrolo[2,3-b]pyridin-5-yl)-8-((R)-morpholin-3-yl)-3,4-dihydroisoquinolin-2(1H)-yl)((R)-3-methylmorpholino)methanone] came in with an IC50 of 118 nM.

`Cc1c[nH]c2ncc(-c3cc4c(c([C@@H]5COCCN5)c3)CN(CC3(O)CCOCC3)CC4)cc12` [Compound Z538, (R)-4-((6-(3-methyl-1H-pyrrolo[2,3-b]pyridin-5-yl)-8-(morpholin-3-yl)-3,4-dihydroisoquinolin-2(1H)-yl)methyl)tetrahydro-2H-pyran-4-ol] yielded an IC50 of 1050 nM.

With `Cc1c[nH]c2ncc(-c3cc4c(c([C@@H]5COCCN5)c3)CN(C(=O)N3CC(C)OCC3C)CC4)cc12` (stereo partly drawn) [Compound Z458, (2,5-dimethylmorpholine)(6-(3-methyl-1H-pyrrolo[2,3-b]pyridin-5-yl)-8-((R)-morpholin-3-yl)-3,4-dihydroisoquinolin-2(1H)-yl)methanone], inhibition was half-maximal at 127 nM (IC50).

Regarding `Cc1cccnc1C#Cc1c[nH]c2ncc(-c3cc4c(c([C@@H]5COCCN5)c3)CN(C(=O)C(C)(C)O)CC4)cc12` [Compound Z578, (R)-2-hydroxy-2-methyl-1-(6-(3-50 ((3-methylpyridin-2-yl)ethynyl)-1H-pyrrolo[2,3-b]pyridin-5-yl)-8-(morpholin-3-yl)-3,4-dihydroisoquinolin-2(1H)-yl)propan-1-one], the IC50 stood at 163 nM.

The compound `Cc1c[nH]c2ncc(-c3cc4c(c([C@@H]5COCCN5)c3)CN(C(=O)N3CC5CCC(C3)N5C)CC4)cc12` [Compound Z462] yielded an IC50 of 255 nM.

Consider `Cc1c[nH]c2ncc(-c3cc4c(c([C@@H]5COCCN5)c3)CN(C(=O)N3CCC(O)CC3)CC4)cc12` [Compound Z556, (R)-(4-hydroxypiperidin-1-yl)(6-(3-methyl-1H-pyrrolo[2,3-b]pyridin-5-yl)-8-(morpholin-3-yl)-3,4-dihydroisoquinolin-2(1H)-yl)methanone], for which 962 nM corresponded to half-maximal inhibition (IC50).

With `CCc1c(F)[nH]c2ncc(-c3cc4c(c([C@@H]5COCCN5)c3)CN(C(=O)C(C)(C)O)CC4)cc12` [Compound Z464, (R)-3-(6-(3-ethyl-2-fluoro-1H-pyrrolo[2,3-b]pyridin-5-yl)-2-(2-hydroxy-2-methylpropanoyl)-1,2,3,4-tetrahydroisoquinolin-8-yl)morpholine], the IC50 was 193 nM.

Compound `C[C@@H]1CN(C(=O)N2CCc3cc(-c4cnc5[nH]cc(Cl)c5c4)cc([C@@H]4COCCN4)c3C2)CCO1` [Compound Z502, (6-(3-chloro-1H-pyrrolo[2,3-b]pyridin-5-yl)-8-((R)-morpholin-3-yl)-3,4-dihydroisoquinolin-2(1H)-yl)((R)-2-methylmorpholino)methanone] returned an IC50 of 169 nM.

On to `O=S(=O)(C1CC1)N1CCc2cc(-c3cnc4[nH]cc(Cl)c4c3)cc([C@@H]3COCCN3)c2C1` [Compound Z499, (R)-3-(6-(3-chloro-1H-pyrrolo[2,3-b]pyridin-5-yl)-2-(cyclopropylsulfonyl)-1,2,3,4-tetrahydroisoquinolin-8-yl)morpholine], for which half-maximal inhibition (IC50) was put at 219 nM.

For the compound `Cc1c[nH]c2ncc(-c3cc4c(c([C@@H]5COCCN5)c3)CN(C(=O)N3CC5CCC(C3)C5O)CC4)cc12` (stereo partly drawn) [Compound Z551, (8-hydroxy-3-azabicyclo[3.2.1]octan-3-yl)(6-(3-methyl-1H-pyrrolo[2,3-b]pyridin-5-yl)-8-((R)-morpholin-3-yl)-3,4-dihydroisoquinolin-2(1H)-yl)methanone], it took 498 nM to reach half-maximal inhibition (IC50).

Take `CCc1c(Cl)[nH]c2ncc(-c3cc4c(c([C@@H]5COCCN5)c3)CN(C(=O)N3CC5CCC(C3)O5)CC4)cc12` [Compound Z514, (8-oxo-3-azabicyclo[3.2.1]octane-3-yl)(6-(2-chloro-3-ethyl-1H-pyrrolo[2,3-b]pyridin-5-yl)-8-((R)-morpholin-3-yl)-3,4-dihydroisoquinolin-2(1H)-yl)methanone]: the IC50 was found to be 134 nM.

In the case of `Cc1c[nH]c2ncc(-c3cc4c(c([C@@H]5COCCN5)c3)CN(C(=O)N3C5CCC3CN(C)C5)CC4)cc12` [Compound Z471, (6-(3-methyl-1H-pyrrolo[2,3-b]pyridin-5-yl)-8-((R)-morpholin-3-yl)-3,4-dihydroisoquinolin-2(1H)-yl)(3-methyl-3,8-diazabicyclo[3.2.1]octan-8-yl)methanone], the IC50 was found to be 180 nM.

The compound `Cc1c[nH]c2ncc(-c3cc4c(c([C@@H]5COCCN5)c3)CN(C(=O)N3CCOC5CC53)CC4)cc12` (stereo partly drawn) [Compound Z562, (2-oxa-5-azabicyclo[4.1.0]heptan-5-yl)(6-(3-methyl-1H-pyrrolo[2,3-b]pyridin-5-yl)-8-((R)-morpholin-3-yl)-3,4-dihydroisoquinolin-2(1H)-yl)methanone] showed an IC50 of 147 nM.

In turn, `C=Cc1c[nH]c2ncc(-c3cc4c(c([C@@H]5COCCN5)c3)CN(C(=O)C(C)(C)O)CC4)cc12` [Compound Z508, (R)-2-hydroxy-2-methyl-1-(8-(morpholin-3-yl)-6-(3-vinyl-1H-pyrrolo[2,3-b]pyridin-5-yl)-3,4-dihydroisoquinolin-2(1H)-yl)propan-1-one] yielded an IC50 of 304 nM.

`C#Cc1c[nH]c2ncc(-c3cc4c(c([C@@H]5COCCN5)c3)CN(C(=O)C(C)(C)O)CC4)cc12` [Compound Z594, (R)-1-(6-(3-ethynyl-1H-pyrrolo[2,3-b]pyridin-5-yl)-8-(morpholin-3-yl)-3,4-dihydroisoquinolin-2(1H)-yl)-2-hydroxy-2-methylpropan-1-one]: the IC50 is 825 nM.

Compound `COc1c[nH]c2ncc(-c3cc4c(c([C@@H]5COCCN5)c3)CN(C(=O)N3C5CCC3COC5)CC4)cc12` [Compound Z582] had an IC50 of 160 nM.

On to `O=C(C1CCOCC1)N1CCc2cc(-c3cnc4[nH]cc(Cl)c4c3)cc([C@@H]3COCCN3)c2C1` [Compound Z543, (R)-[6-(3-chloro-1H-pyrrolo[2,3-b]pyridin-5-yl)-8-(morpholin-3-yl)-3,4-dihydroisoquinolin-2(1H)-yl](tetrahydro-2H-pyran-4-yl)methanone], for which 236 nM corresponded to half-maximal inhibition (IC50).

The compound `C[C@@H]1COCCN1C(=O)N1CCc2cc(-c3cnc4[nH]cc(Cl)c4c3)cc([C@@H]3COCCN3)c2C1` [Compound Z500, (6-(3-chloro-1H-pyrrolo[2,3-b]pyridin-5-yl)-8-((R)-morpholin-3-yl)-3,4-dihydroisoquinolin-2(1H)-yl)((R)-3-methylmorpholine)methanone] had an IC50 of 143 nM.

`C[C@H]1COCCN1C(=O)N1CCc2cc(-c3cnc4[nH]cc(Cl)c4n3)cc([C@@H]3COCCN3)c2C1` [Compound Z573] came in with an IC50 of 122 nM.

For `Cc1n[nH]c2ncc(-c3cc4c(c([C@@H]5COCCN5)c3)CN(C(=O)C(C)(C)O)CC4)cc12` [Compound Z455, (R)-2-hydroxy-2-methyl-1-(6-(3-methyl-1H-pyrazolo [3,4-b]pyridin-5-yl)-8-(morpholin-3-yl)-3,4-dihydroisoquinolin-2(1H)-yl)propan-1-one], the IC50 came out at 4430 nM.

The compound `CN1CC2CCC(C1)N2C(=O)N1CCc2cc(-c3cnc4[nH]cc(Cl)c4c3)cc([C@@H]3COCCN3)c2C1` [Compound Z472] registered an IC50 of 216 nM.
